Measured values from patent publication US20260223847A1, “Compounds for Increasing Frost Tolerance in Plants” (VIB VZW, priority 2023, published 2026).

Key:
Format in all cases: in vivo
Arabidopsis seedlings = assay: Osmotic stress tolerance in Arabidopsis seedlings (sorbitol); details: low concentrations; ½MS with sorbitol
Protocol: FIGS. 4A-4D: Effect of A68 and its variant A68-6 on Arabidopsis growth in osmotic stress conditions. The two compounds were tested at 3 different concentrations in ½MS without sucrose supplemented with 100 mM sorbitol. The extent of stress tolerance in presence of the small molecules was estimated by following the rosette size (FIG. 4A) as well as root related parameters, such as the total (FIG. 4B) and main (FIG. 4C) root length and lateral root number (FIG. 4D). Results are presented relative to the mock-treated control (0.005% DMSO). FIGS. 5A-5D: Effect of A68-6 on Arabidopsis growth in osmotic stress conditions. The compound was tested at 3 different concentrations in ½MS without sucrose supplemented with 200 mM sorbitol. The extent of stress tolerance in presence of the small molecules was estimated by following the rosette size (FIG. 5A) as well as root related parameters, such as the total (FIG. 5B) and main (FIG. 5C) root length and lateral root number (FIG. 5D). Results are presented relative to the mock-treated control (0.005% DMSO).

[1] = test system: Strawberry, Fragaria ananasa, cv. Elsanta; assay: Efficacy trial against frost damage on strawberry (trial 22.RM.SAB.028)
From the text: Preparation of the agronomical formulation: compound A68 is suspended in acetone at a concentration of 1 g/l. Further in this example this suspension is designated as 22.SC.040.
Trial setup: Strawberry, Fragaria ananasa, tray plants cv. Elsanta were planted in P13 pots, 1 plant per pot. The used substrate was a standard strawberry-substrate with addition of 180 g Osmocoat/651 substrate. (Osmocoat 18-5-11+4CaO+2MgO Agroblen 3-4 months).
36 plants (6 objects×6 repetitions) were randomly placed on tables with eb-flood system (21 l/2.5 m2 during 10 minutes, 2×/24 hours) in the greenhouse (22° C./10° C. day/night; 50% RH).
Foliar applications were executed in a standardized spraying cabin. A nozzle (Albuz TVI, color green) moved over the plants with a constant speed, simulating a spraying volume of 300l/ha.
At full bloom of the first flower branch, these branches were marked with a plastic strip. The plants were placed on pallets and enter a fridge at 5° C. during night, to decrease warmth in the substrate and chill the plants. The next morning, the plants were moved from the fridge to a freezing container. […]
One day and one week after frost, the flowers on the marked branches were assessed. […]
When the fruits ripen, the ripe fruits were picked. […] Also, the number of fruits were counted and the weight was measured. […]

[2] = test system: Arabidopsis Col-0 seedlings; assay: Arabidopsis hypocotyl elongation (growth) assay; details: long day (LD: 16/8 h) conditions
Protocol: FIG. 1: Left: hypocotyl length of Arabidopsis Col-0 seedlings germinated on solid ½MS medium for 4 days and then transferred for 3 more days to liquid ½MS supplemented with a range of concentrations of A68. Right: primary root length of Arabidopsis Col-0 seedlings grown on solid ½MS medium supplemented with a range of concentrations of A68 for 12 days. FIG. 2: Effects of A68 and its related variants on the Arabidopsis hypocotyl elongation. Arabidopsis seedlings were grown on solid ½MS medium for 4 days and then transferred for 3 more days to liquid ½ MS supplemented with the studied compounds at either 0.5 or 50 μM final concentration. Hypocotyl length is represented relative to that of mock-treated seedlings from the same biological repeats. n>400 seedlings for DMSO and A68 initial hit (control treatments throughout the experiments), n>30 seedlings for the A68 variants. Student's two-sample t-test, *P<0.05, **P<0.01 and ***P<0.001. FIG. 3: Hypocotyl elongation dose-response curves for A68 and three bioactive variants A68-6, A68-8 and A68-53 showing the half-maximum effective concentration EC50. A bioactive compound, herein further designated as A68, was identified by screening a commercial 10,000 compound library (DIVERSet, ChemBridge Corporation) for hypocotyl elongation phenotype at a final concentration of 50 μM in 2% DMSO. […]

[3] = test system: Arabidopsis Col-0 seedlings; assay: Arabidopsis primary root growth / lateral root number; details: long day (LD: 16/8 h) conditions
From the text: FIG. 1: Left: hypocotyl length of Arabidopsis Col-0 seedlings germinated on solid ½MS medium for 4 days and then transferred for 3 more days to liquid ½MS supplemented with a range of concentrations of A68. Right: primary root length of Arabidopsis Col-0 seedlings grown on solid ½MS medium supplemented with a range of concentrations of A68 for 12 days. A bioactive compound, herein further designated as A68, was identified by screening a commercial 10,000 compound library (DIVERSet, ChemBridge Corporation) for hypocotyl elongation phenotype at a final concentration of 50 μM in 2% DMSO. A68 promotes hypocotyl elongation, while suppresses primary root growth but increases lateral root number under long day (LD: 16/8 h) conditions (see FIG. 1).

## Cc1cccc(C(=O)Nc2ccc(Oc3ccc4c(c3)C(=O)NC4=O)cc2)c1 [Compound A68, N-(4-((1,3-dioxoisoindolin-5-yl)oxy)phenyl)-3-methylbenzamide]
Arabidopsis seedlings
  tolerance to mild osmotic stress: enhance tolerance
[1]; A68 suspended in acetone, foliar spray
  efficacy to decrease frost damage on strawberry: clear indications of efficacy
[1]; maximum efficacy of the Gauss-curve
  optimal dose-rate: around 1000 mg/ha
[2]
  hypocotyl elongation: promotes
[3]
  lateral root number: increases
  primary root growth: suppresses
